Drawing on patent US6432969B1, “N-(substituted glycyl)-2 cyanopyrrolidines, pharmaceutical compositions containing them and their use in inhibiting dipeptidyl peptidase-IV” (Novartis AG, priority 2000, dated 2002), this text covers IC50 and melting point for 27 compounds.

The target of data set [1] is T1, DPP-IV activity in human plasma (Homo sapiens, UniProt P27487).
T1 construct: from tissue; host or cells: human plasma
The data set can be described thus: Human plasma DPP-IV assay. The format is biochemical. The conditions noted are these: substrate H-Gly-Pro-AMC. How it is done:
(§1) Briefly, 5 μl of plasma are added to 96-well flat-bottom micortiter plates (Falcon), followed by the addition of 5 μl of 80 mM MgCl2 in incubation buffer (25 mMHEPES, 140 mM NaCl, 1% RIA-grade BSA, pH 7.8). After a 60 min. incubation at room temperature, the reaction is initiated by the addition of 10 μl of incubation buffer containing 0.1 mM substrate (H-Glycine-Proline-AMC; AMC is 7-amino 4-methylcoumarin). The plates are covered with aluminum foil (or kept in the dark) and incubated at room temperature for 20 min. […] A fluorescence-concentration curve of free AMC is generated using 0-50 μM solutions of AMC in assay buffer. The curve generated is linear and is used for interpolation of substrate consumption (catalytic activity in nmoles substrate cleaved/min). As with the previous assay, the potency of the test compounds as DPP-IV inhibitors, expressed as IC50, is calculated from 8-point, dose-response curves using a 4 parameter logistic function.

For data set [2], the target named is T2, DPP-IV activity from human colonic carcinoma cell (Caco-2) extracts (Homo sapiens, UniProt P27487).
T2 construct: Cell extract is prepared from cells solubilized in 10 mM Tris HCl; host or cells: Caco-2, differentiated to induce DPP-IV expression
T2 sequence (P27487 whole entry): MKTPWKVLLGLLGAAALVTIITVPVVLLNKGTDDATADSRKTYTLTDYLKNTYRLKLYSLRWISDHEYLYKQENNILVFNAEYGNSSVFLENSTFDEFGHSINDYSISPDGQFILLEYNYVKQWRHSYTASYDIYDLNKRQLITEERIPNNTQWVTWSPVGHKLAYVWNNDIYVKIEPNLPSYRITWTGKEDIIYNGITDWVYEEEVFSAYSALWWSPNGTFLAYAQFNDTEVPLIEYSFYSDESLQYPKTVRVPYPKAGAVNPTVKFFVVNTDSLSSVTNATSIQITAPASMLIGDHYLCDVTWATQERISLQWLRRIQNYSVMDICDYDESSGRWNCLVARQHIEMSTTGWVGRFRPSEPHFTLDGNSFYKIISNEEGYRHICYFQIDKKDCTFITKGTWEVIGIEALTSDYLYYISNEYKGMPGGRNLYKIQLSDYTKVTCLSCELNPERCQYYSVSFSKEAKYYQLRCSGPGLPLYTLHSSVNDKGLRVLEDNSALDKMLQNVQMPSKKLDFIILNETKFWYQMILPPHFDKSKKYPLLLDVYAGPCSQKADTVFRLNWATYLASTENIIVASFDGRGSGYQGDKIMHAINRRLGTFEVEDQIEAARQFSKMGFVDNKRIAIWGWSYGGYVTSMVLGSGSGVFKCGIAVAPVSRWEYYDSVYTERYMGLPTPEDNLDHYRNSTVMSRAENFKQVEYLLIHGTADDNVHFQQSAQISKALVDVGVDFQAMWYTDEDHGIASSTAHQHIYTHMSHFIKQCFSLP
The data set can be described thus: Caco-2 DPP-IV Assay. The conditions noted are these: Caco-2 cell extract, substrate H-Ala-Pro-pNA, 8-point dose-response. The format is biochemical. The procedure: The human colonic carcinoma cell line Caco-2 was obtained from the American Type Culture Collection (ATCC HTB 37). Differentiation of the cells to induce DPP-IV expression was accomplished as described by Reisher, et al. in an article entitled “Increased expression of intestinal cell line Caco-2” in Proc. Natl. Acad. Sci., Vol. 90, pgs. […] Cell extract is prepared from cells solubilized in 10 mM Tris HCl, 0.15 M NaCl, 0.04 t.i.u.aprotinin, 0.5% nonidet-P40, pH 8.0, which is centrifuged at 35,000 g for 30 min. at 4° C. to remove cell debris. The assay is conducted by adding 20 μg solubilized Caco-2 protein, diluted to a final volume of 125 μl in assay buffer (25 mM Tris HCl pH 7.4, 140 mM NaCl, 10 mM KCl, 1% bovine serum albumin) to microtiter plate wells. After a 60 min. incubation at room temperature, the reaction is initiated by adding 25 μl of 1 mM substrate (H-Alanine-Proline-pNA; pNA is p-nitroaniline). […] A standard curve of free p-nitroaniline is generated using 0-500 μM solutions of free pNA in assay buffer. The curve generated is linear and is used for interpolation of substrate consumption (catalytic activity in nmoles substrate cleaved/min).
The potency of the test compounds as DPP-IV inhibitors, expressed as IC50, is calculated from 8-point, dose-response curves using a 4-parameter logistic function.

For data set [3], the target named is T3, DPP-IV activity in rat plasma (Rattus norvegicus, UniProt P14740).
T3 construct: from tissue; host or cells: rat plasma
T3 sequence (P14740 38-767 limits assumed): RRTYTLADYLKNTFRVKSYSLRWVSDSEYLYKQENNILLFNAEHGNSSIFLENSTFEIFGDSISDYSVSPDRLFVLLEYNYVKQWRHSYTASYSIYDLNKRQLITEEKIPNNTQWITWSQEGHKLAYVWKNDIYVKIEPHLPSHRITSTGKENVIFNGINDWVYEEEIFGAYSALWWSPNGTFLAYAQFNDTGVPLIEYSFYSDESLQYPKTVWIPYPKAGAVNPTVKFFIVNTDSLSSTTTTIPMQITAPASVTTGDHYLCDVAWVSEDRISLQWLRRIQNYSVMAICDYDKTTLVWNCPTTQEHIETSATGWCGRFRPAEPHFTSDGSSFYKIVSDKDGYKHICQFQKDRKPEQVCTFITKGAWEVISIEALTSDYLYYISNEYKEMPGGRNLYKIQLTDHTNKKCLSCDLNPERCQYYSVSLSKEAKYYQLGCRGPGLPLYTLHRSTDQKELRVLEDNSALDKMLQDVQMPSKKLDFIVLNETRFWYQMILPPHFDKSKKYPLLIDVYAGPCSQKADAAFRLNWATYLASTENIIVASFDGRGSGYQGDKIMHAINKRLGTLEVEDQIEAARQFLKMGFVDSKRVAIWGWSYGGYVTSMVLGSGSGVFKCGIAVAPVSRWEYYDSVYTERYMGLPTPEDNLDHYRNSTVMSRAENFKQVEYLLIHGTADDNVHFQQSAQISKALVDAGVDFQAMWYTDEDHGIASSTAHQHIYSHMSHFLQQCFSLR
The data set can be described thus: Rat plasma DPP-IV assay. The format is biochemical. The conditions noted are these: substrate H-Gly-Pro-AMC. How it is done: as §1

Structures are written as SMILES. Counter-ions that a name gives are not always drawn.

T1 sequence (P27487 39-766 limits assumed): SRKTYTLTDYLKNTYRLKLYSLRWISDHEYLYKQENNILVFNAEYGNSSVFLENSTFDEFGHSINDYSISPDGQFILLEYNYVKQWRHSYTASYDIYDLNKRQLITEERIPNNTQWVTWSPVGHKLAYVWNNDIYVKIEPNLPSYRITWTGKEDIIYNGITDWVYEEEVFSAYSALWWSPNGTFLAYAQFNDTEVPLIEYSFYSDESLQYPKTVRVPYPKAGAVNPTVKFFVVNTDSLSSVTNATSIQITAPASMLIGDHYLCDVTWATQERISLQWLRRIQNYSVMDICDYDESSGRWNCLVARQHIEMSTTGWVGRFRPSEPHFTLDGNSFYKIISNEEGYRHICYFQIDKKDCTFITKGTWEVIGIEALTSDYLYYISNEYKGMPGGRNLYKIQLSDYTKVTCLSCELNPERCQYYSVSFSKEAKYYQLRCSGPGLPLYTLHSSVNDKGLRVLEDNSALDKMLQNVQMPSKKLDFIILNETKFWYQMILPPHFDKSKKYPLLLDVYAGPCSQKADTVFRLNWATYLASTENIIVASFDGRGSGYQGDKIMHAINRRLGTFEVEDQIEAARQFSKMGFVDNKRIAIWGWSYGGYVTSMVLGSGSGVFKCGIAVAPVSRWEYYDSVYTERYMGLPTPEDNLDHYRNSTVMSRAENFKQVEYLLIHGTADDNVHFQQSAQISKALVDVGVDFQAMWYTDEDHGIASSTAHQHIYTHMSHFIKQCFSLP

As to `N#C[C@@H]1CCCN1C(=O)CN[C@H]1CC[C@H](Oc2cccc(Cl)c2)CC1` [Ex. 2HH], the results for the IC50 in data set [1], in data set [2] and in data set [3] were 18 nM, 18 nM and 10 nM, respectively.
As to `N#C[C@@H]1CCCN1C(=O)CN[C@H]1CC[C@H](NS(=O)(=O)c2ccc(Cl)cc2)CC1` [Ex. 2Q, 1-[[[[4-[(4-chlorophenyl)sulfonyl]amino]cyclohexyl]amino]acetyl]-2-cyano-(S)-pyrrolidine], the values for the IC50 in data set [1], in data set [2] and in data set [3] were 38 nM, 30 nM and 38 nM, respectively.
For the compound `CC(C)N(C(=O)NCC(C)(C)NCC(=O)N1CCC[C@H]1C#N)C(C)C` [Ex. 2J, 1-[[[2-[[(diisopropylamino)carbonyl]amino]-1,1-dimethylethyl]amino]acetyl]-2-cyano-(S)-pyrrolidine], the IC50 in data set [1] was 421 nM; in data set [2], 41 nM; in data set [3], 49 nM.
In data set [3], `CC(C)(CNc1ncccc1C(F)(F)F)NCC(=O)N1CCC[C@H]1C#N` [Ex. 2G, 1-[[[2-[(3-trifluoromethyl-2-pyridinyl)amino]-1,1-dimethylethyl]amino]acetyl]-2-cyano-(S)-pyrrolidine] gave an IC50 of 111 nM.
Turning to `CC(C)(CNC(=O)Nc1ccc(Cl)cc1)NCC(=O)N1CCC[C@H]1C#N` [Ex. 2K, 1-[[[2-[[[(4-chlorophenyl)amino]carbonyl]amino]-1,1-dimethylethyl]amino]acetyl]-2-cyano-(S)-pyrrolidine], the values for the IC50 in data set [1], in data set [2] and in data set [3] were 305 nM, 56 nM and 38 nM, respectively.
For `N#C[C@@H]1CCCN1C(=O)CN[C@H]1CC[C@H](Nc2ncccc2C(F)(F)F)CC1` [Ex. 2P, 1-[[4-[[(3-trifluoromethyl-2-pyridinyl)amino]cyclohexyl]amino]acetyl]-2-cyano-(S)-pyrrolidine], the IC50 in data set [1] came to 16 nM; in data set [2], 15 nM; in data set [3], 11 nM.
In the same order, the values of `N#C[C@@H]1CCCN1C(=O)CNC1CCN(S(=O)(=O)c2ccccc2)CC1` [Ex. 4D, 1-[[(1-phenylsulfonyl-4-piperidinyl)amino]acetyl]-2-cyano-(S)-pyrrolidine] are 104 nM, 114 nM and 59 nM.
Turning to `N#C[C@@H]1CCCN1C(=O)CN[C@H]1CC[C@H](Oc2cccc(C(F)(F)F)c2)CC1` [Ex. 2GG, 1-[[[4-[(3-trifluoromethyl)phenoxy]cyclohexyl]amino]acetyl]-2-cyano-(S)-pyrrolidine], the IC50 came to 20 nM in data set [1], 22 nM in data set [2] and 10 nM in data set [3].
In the same order, the values of `N#C[C@@H]1CCCN1C(=O)CN[C@H]1CC[C@H](NC(=O)c2ccc(F)cc2)CC1` [Ex. 5] are 5 nM, 36 nM and 4 nM.
On to `COc1ccc(-c2csc(N3CCC(NCC(=O)N4CCC[C@H]4C#N)CC3)n2)cc1` [Ex. 2MM], for which the IC50 in data set [1] is 71 nM; in data set [2] it was 22 nM; in data set [3], 58 nM.
In the same order, the values of `CC(C)(Cc1ccc(F)cc1)NCC(=O)N1CCC[C@H]1C#N` [Ex. 2BB] are 38 nM, 19 nM and 13 nM.
In the same order, the values of `CC(C)(CNc1ncc(Cl)cc1Cl)NCC(=O)N1CCC[C@H]1C#N` [Ex. 2F, 1-[[[2-[(3,5-dichloro-2-pyridinyl)amino]-1,1-dimethylethyl]amino]acetyl]-2-cyano-(S)-pyrrolidine] are 46 nM, 45 nM and 37 nM.
The like results for `CC(C)(CNc1ccc(C(F)(F)F)cn1)NCC(=O)N1CCC[C@H]1C#N` [Ex. 2B, 1-[[[2-[(5-trifluoromethyl-2-pyridinyl)amino]-1,1-dimethylethyl]amino]acetyl]-2-cyano-(S)-pyrrolidine] were, in that order, 59 nM, 5 nM and 11 nM.
As for `N#C[C@@H]1CCCN1C(=O)CNC1CCN(S(=O)(=O)c2ccc(C(F)(F)F)cc2)CC1` [Ex. 4C], the IC50 in data set [1] amounted to 68 nM; in data set [2] it was 83 nM; in data set [3], 48 nM.
In the same order, the values of `N#C[C@@H]1CCCN1C(=O)CNC1CCN(C(=O)c2ccc(Cl)cc2)CC1` [Ex. 4B] are 77 nM, 35 nM and 31 nM.
In the same order, the values of `N#C[C@@H]1CCCN1C(=O)CN[C@H]1CC[C@H](NS(=O)(=O)c2ccc(C(F)(F)F)cc2)CC1` [Ex. 2Z, 1-[[[4-[[[(4-trifluoromethyl)phenyl]sulfonyl]amino]cyclohexyl]amino]acetyl]-2-cyano-(S)-pyrrolidine] are 122 nM, 66 nM and 88 nM.
The like results for `N#C[C@@H]1CCCN1C(=O)CN[C@H]1CC[C@H](NC(=O)c2ccc(Cl)cc2)CC1` [Ex. 2T, 1-[[[4-[(4-chlorobenzoyl)amino]cyclohexyl]amino]acetyl]-2-cyano-, (S)-pyrrolidine] were, in that order, 26 nM, 31 nM and 37 nM.
For the compound `Cc1ccc(C(=O)NCC(C)(C)NCC(=O)N2CCC[C@H]2C#N)cc1` [Ex. 2C, 1-[[[2-[(4-methylbenzoyl)amino]-1,1-dimethylethyl]amino]acetyl]-2-cyano-(S)pyrrolidine], the melting point lay within 40 to 42 °C. Besides, in data set [1], the IC50 amounted to 50 nM. Further, half-maximal inhibition in data set [2] (IC50) required 99 nM. In data set [3], the midpoint of inhibition, the IC50, lay at 25 nM.
As to `N#C[C@@H]1CCCN1C(=O)CNC1CCN(C(=O)Nc2ccc(Cl)cc2)CC1` [Ex. 2II, 1-[[[1-[[(4-chlorophenyl)amino]carbonyl]-4-piperidinyl]amino]acetyl]-2-cyano-(S)-pyrrolidine], the IC50 came out at 37 nM in data set [1], 44 nM in data set [2] and 12 nM in data set [3].
In the same order, the values of `N#C[C@@H]1CCCN1C(=O)CNC1CCN(c2nc(-c3ccc(Cl)cc3)cs2)CC1` [Ex. 2LL] are 649 nM, 61 nM and 123 nM.
The like results for `CC(C)N(C(=O)N1CCC(NCC(=O)N2CCC[C@H]2C#N)CC1)C(C)C` [Ex. 2JJ, 1-[[[1-[(diisopropylamino)carbonyl]-4-piperidinyl]amino]acetyl]-2-cyano-(S)-pyrrolidine] were, in that order, 45 nM, 94 nM and 5 nM.
The like results for `N#C[C@@H]1CCCN1C(=O)CN[C@H]1CC[C@H](Nc2nccc(C(F)(F)F)n2)CC1` [Ex. 2O, 1-[[[4-[[(4-trifluoromethyl)-2-pyrimidinyl]amino]cyclohexyl]amino]acetyl]-2-cyano-(S)-pyrrolidine] were, in that order, 8 nM, 8 nM and 9 nM.
As to `CCCCCC12CCC(NCC(=O)N3CCC[C@H]3C#N)(CC1)CC2` [Ex. 2DD, 1-[[(4-pentylbicyclo[2.2.2]oct-1-yl)amino]acetyl]-2-cyano-(S)-pyrrolidine], the IC50 in data set [1] is 66 nM; in data set [2], 156 nM; in data set [3], 38 nM.
The like results for `CC(C)(CNC(=O)c1ccc(Cl)cc1)NCC(=O)N1CCC[C@H]1C#N` [Ex. 2I, 1-[[[2-[(4-chlorobenzoyl)amino]-1,1-dimethylethyl]amino]acetyl]-2-cyano-(S)-pyrrolidine] were, in that order, 73 nM, 80 nM and 31 nM.
The like results for `CC(C)(CNc1ncccc1Cl)NCC(=O)N1CCC[C@H]1C#N` [Ex. 2D, 1-[[[2-[(3-chloro-2-pyridinyl)amino]-1,1-dimethylethyl]amino]acetyl]-2-cyano-(S)-pyrrolidine] were, in that order, 93 nM, 44 nM and 71 nM.
The like results for `N#C[C@@H]1CCCN1C(=O)CN[C@H]1CC[C@H](NS(=O)(=O)c2cccs2)CC1` [Ex. 2AA] were, in that order, 33 nM, 56 nM and 16 nM.
`CC(C)(CNc1ncccc1Cl)NCC(=O)N1CCC[C@H]1C#N` (as salt: hydrochloride) [Ex. 2D, 1-[[[2-[(3-chloro-2-pyridinyl)amino]-1,1-dimethylethyl]amino]acetyl]-2-cyano-(S)-pyrrolidine] showed a melting point of 144 to 146 °C.

For orientation: IC50 means the concentration needed to halve the response being measured. Broadly, the melting point is the temperature of the solid-liquid transition.
